The test system of data set [1] is Escherichia coli. As to the kind of experiment: Antibacterial activity against Escherichia coli ATCC 25922 assessed as inhibition of bacterial growth measured after 18 hrs by resazurin dye based analysis. It counts as functional. For orientation: Alamar Blue is a resazurin reagent that responds to reducing activity.
The nature of data set [2]: Selectivity index, ratio of IC50 for HEK293 to MIC for methicillin-resistant Staphylococcus aureus ATCC 43300. It counts as toxicity. Particulars: human, HEK293 cells; read-out: Selectivity Index.
For data set [3], the system named is Pseudomonas aeruginosa. As to the kind of experiment: Antibacterial activity against Pseudomonas aeruginosa ATCC 27853 assessed as inhibition of bacterial growth measured after 18 hrs by resazurin dye based analysis. It counts as functional.
The subject of a further data set is Acinetobacter baumannii. As to the kind of experiment: Antibacterial activity against Acinetobacter baumannii ATCC 19606 assessed as inhibition of bacterial growth measured after 18 hrs by resazurin dye based analysis. It counts as functional.
In the next data set the test system is Candida albicans. As to the kind of experiment: Antifungal activity against Candida albicans ATCC 90028 assessed as fungal growth inhibition incubated for 36 hrs by resazurin dye based analysis. It counts as functional.
Another data set has as its system Klebsiella pneumoniae. As to the kind of experiment: Antibacterial activity against Klebsiella pneumoniae ATCC 700603 assessed as inhibition of bacterial growth measured after 18 hrs by resazurin dye based analysis. It counts as functional.
The next data set has as its system Staphylococcus aureus. As to the kind of experiment: Antibacterial activity against methicillin-resistant Staphylococcus aureus ATCC 43300 assessed as inhibition of bacterial growth measured after 18 hrs by resazurin dye based analysis. It counts as functional.
The subject of a further data set is Cryptococcus neoformans. As to the kind of experiment: Antifungal activity against Cryptococcus neoformans ATCC 208821 assessed as fungal growth inhibition incubated for 36 hrs by resazurin dye based analysis. It counts as functional.
Data set [4] in a line: Cytotoxicity against HEK293 cells assessed as cell growth inhibition measured after 20 hrs by resazurin dye based assay. It counts as toxicity. Particulars: human.
For data set [5], the system named is Escherichia coli. As to the kind of experiment: Antibiotic adjuvant activity against Escherichia coli ATCC 25922 assessed as erythromycin MIC measured after 18 hrs in presence of erythromycin. It counts as functional.
Data set [6] has as its system Pseudomonas aeruginosa. As to the kind of experiment: Antibiotic adjuvant activity against Pseudomonas aeruginosa ATCC 27853 assessed as doxycycline MIC measured after 18 hrs in presence of doxycycline. It counts as functional.
Data set [7] has as its system Saccharomyces cerevisiae. As to the kind of experiment: Antifungal activity against Saccharomyces cerevisiae BY4743 assessed as fungal growth inhibition incubated for 24 hrs by plate reader method. It counts as functional, organism-based. Particulars: BY4743, 24 h.
Data set [8] deals with Saccharomyces cerevisiae. As to the kind of experiment: Antifungal activity against Saccharomyces cerevisiae YJM789 assessed as fungal growth inhibition incubated for 24 hrs by plate reader method. It counts as functional, organism-based. The note with it: YJM789, 24 h.
In data set [9] the test system is Saccharomyces cerevisiae. As to the kind of experiment: Antifungal activity against Saccharomyces cerevisiae PA3-10-3 variant assessed as fungal growth inhibition incubated for 24 hrs by plate reader method. It counts as functional, organism-based.

Where only a bound is given, the exact number is not on record here.

Regarding `C[C@]1(C(=O)NCCCNCCCCCCCCCCCCN)CCC[C@]2(C)c3cc(O)ccc3CC[C@@H]12.O=C(O)C(F)(F)F.O=C(O)C(F)(F)F`, the minimal inhibitory concentration (MIC) (as a rule, the smallest concentration in the dilution series that meets the test's criterion for growth inhibition) is 43.1 µM in the data set on Escherichia coli [1]; greater than 43.1 µM in the data set with Pseudomonas aeruginosa [3]; 43.1 µM with Acinetobacter baumannii; 43.1 µM in the data set on Candida albicans; greater than 43.1 µM with Klebsiella pneumoniae; 5.4 µM with Staphylococcus aureus. In addition, in the data set on Cryptococcus neoformans, the minimum inhibitory concentration (MIC) is 43.1 µM. Further, in data set [2], the selectivity ratio came out at 4.9. For the same compound, the concentration for half-maximal inhibition (IC50) – broadly, the point on the concentration scale where inhibition reaches its midpoint – at 20 h in data set [4] worked out at 26.2 µM.

For the compound `C[C@]1(C(=O)NCCCNCCCCN)CCC[C@]2(C)c3cc(OC(=O)NCCCNCCCCN)ccc3CC[C@@H]12.O=C(O)C(F)(F)F.O=C(O)C(F)(F)F.O=C(O)C(F)(F)F.O=C(O)C(F)(F)F`, the MIC in the data set on Escherichia coli [1], in the data set on Pseudomonas aeruginosa [3], with Acinetobacter baumannii, in the data set with Candida albicans, in the data set on Klebsiella pneumoniae and in the data set on Staphylococcus aureus was greater than 31.1 µM in each case. For the same compound, the figures for the minimum inhibitory concentration (MIC) in the data set on Cryptococcus neoformans, with Escherichia coli [5] and with Pseudomonas aeruginosa [6] were greater than 31.1 µM, 25 µM and 25 µM, respectively. In addition, the IC50 at 20 h in [4] is greater than 31.1 µM.

As for `C[C@]1(C(=O)NCCCNCCCCCCCCCCCCN)CCC[C@]2(C)c3cc(OC(=O)NCCCNCCCCCCCCCCCCN)ccc3CC[C@@H]12.O=C(O)C(F)(F)F.O=C(O)C(F)(F)F.O=C(O)C(F)(F)F.O=C(O)C(F)(F)F`, the minimal inhibitory concentration (MIC) in the data set on Escherichia coli [1] was no more than 0.2 µM; in the data set with Pseudomonas aeruginosa [3] it was greater than 25.5 µM; with Acinetobacter baumannii, 6.38 µM; in the data set on Candida albicans, 25.5 µM; in the data set on Klebsiella pneumoniae, 12.8 µM; in the data set on Staphylococcus aureus, no more than 0.2 µM. Also, the MIC in the data set with Cryptococcus neoformans is greater than 25.5 µM; in the data set with Pseudomonas aeruginosa [6], 50 µM. The half-inhibitory concentration (IC50) at 20 h in data set [4] was 0.33 µM.

With `C[C@@]12CCC[C@](C)(C(=O)O)[C@H]1CCc1ccc(OC(=O)CCCNCCCCCCNCCCNC(=O)Oc3ccc4c(c3)[C@@]3(C)CCC[C@](C)(C(=O)O)[C@@H]3CC4)cc12.O=C(O)C(F)(F)F.O=C(O)C(F)(F)F`, the MIC in the data set on Escherichia coli [1] was greater than 30.2 µM; in the data set on Pseudomonas aeruginosa [3], greater than 30.2 µM; with Acinetobacter baumannii it was greater than 30.2 µM; in the data set on Candida albicans it was 30.2 µM; in the data set on Klebsiella pneumoniae it was greater than 30.2 µM; with Staphylococcus aureus, 30.2 µM. For the same compound, in the data set with Cryptococcus neoformans, the MIC was found to be 30.2 µM. The IC50 in the data set with Saccharomyces cerevisiae [7] amounted to 3.59 µM; in the data set on Saccharomyces cerevisiae [8] it was 14.3 µM. Moreover, the half-inhibitory concentration (IC50) at 20 h in [4] is greater than 30.2 µM.

Regarding `C[C@]1(C(=O)NCCCNCCCCCCCCCCN)CCC[C@]2(C)c3cc(OC(=O)NCCCNCCCCCCCCCCN)ccc3CC[C@@H]12.O=C(O)C(F)(F)F.O=C(O)C(F)(F)F.O=C(O)C(F)(F)F.O=C(O)C(F)(F)F`, the minimum inhibitory concentration (MIC) with Escherichia coli [1] is greater than 26.7 µM; in the data set with Pseudomonas aeruginosa [3], greater than 26.7 µM; in the data set with Acinetobacter baumannii, greater than 26.7 µM; in the data set on Candida albicans it was greater than 26.7 µM; in the data set on Klebsiella pneumoniae it was greater than 26.7 µM; in the data set on Staphylococcus aureus, 26.7 µM. In addition, the minimal inhibitory concentration (MIC) in the data set with Cryptococcus neoformans was greater than 26.7 µM; in the data set on Escherichia coli [5], 3.12 µM; in the data set with Pseudomonas aeruginosa [6], 50 µM. For the same compound, the concentration for half-maximal inhibition (IC50) at 20 h in data set [4] came to 20.6 µM.

`C[C@]1(C(=O)O)CCC[C@]2(C)c3cc(OC(=O)CCCNCCCCCCCCCCNCCCNC(=O)Oc4ccc5c(c4)[C@@]4(C)CCC[C@](C)(C(=O)O)[C@@H]4CC5)ccc3CC[C@@H]12.O=C(O)C(F)(F)F.O=C(O)C(F)(F)F`: the MIC in the data set on Escherichia coli [1], with Pseudomonas aeruginosa [3], in the data set with Acinetobacter baumannii, in the data set on Candida albicans, in the data set with Klebsiella pneumoniae and with Staphylococcus aureus was greater than 28.7 µM each time. Moreover, the MIC in the data set on Cryptococcus neoformans is 7.17 µM. The IC50 is 3.59 µM with Saccharomyces cerevisiae [7], greater than 25 µM in the data set on Saccharomyces cerevisiae [9] and 14.3 µM with Saccharomyces cerevisiae [8]. For the same compound, the half-inhibitory concentration (IC50) at 20 h in data set [4] is greater than 28.7 µM.

As for `C[C@]1(C(=O)NCCCNCCCCCCN)CCC[C@]2(C)c3cc(OC(=O)NCCCNCCCCCCN)ccc3CC[C@@H]12.O=C(O)C(F)(F)F.O=C(O)C(F)(F)F.O=C(O)C(F)(F)F.O=C(O)C(F)(F)F`, the MIC in the data set on Escherichia coli [1], with Pseudomonas aeruginosa [3], in the data set on Acinetobacter baumannii, with Candida albicans, in the data set on Klebsiella pneumoniae and in the data set with Staphylococcus aureus was greater than 29.5 µM each time. For the same compound, the MIC in the data set on Cryptococcus neoformans was greater than 29.5 µM; with Escherichia coli [5] it was 50 µM. Further, the IC50 at 20 h in data set [4] was greater than 29.5 µM.

Regarding `C[C@]1(C(=O)NCCCNCCCCNCCCNC(=O)[C@@]2(C)CCC[C@]3(C)c4cc(O)ccc4CC[C@@H]23)CCC[C@]2(C)c3cc(O)ccc3CC[C@@H]12.O=C(O)C(F)(F)F.O=C(O)C(F)(F)F`, the minimal inhibitory concentration (MIC) in the data set with Escherichia coli [1] is greater than 33.9 µM; with Pseudomonas aeruginosa [3], greater than 33.9 µM; in the data set with Acinetobacter baumannii, greater than 33.9 µM; with Candida albicans it was greater than 33.9 µM; in the data set on Klebsiella pneumoniae, greater than 33.9 µM; in the data set with Staphylococcus aureus it was no more than 0.26 µM. Further, the MIC in the data set on Cryptococcus neoformans turned out to be 17 µM; in the data set with Escherichia coli [5], 26.5 µM. Further, in [2], the selectivity ratio is greater than 130. In data set [4], the IC50 at 20 h is greater than 33.9 µM.
